The record followed here is publication PMC6412891, “Synthesis and Biological Evaluation of Novel Thiazolyl-Coumarin Derivatives as Potent Histone Deacetylase Inhibitors with Antifibrotic Activity” (Molecules, 2019).

The subject of series [1] is neonatal rat cardiac fibroblasts (CFs). The series can be described thus: FBS-induced cardiac fibroblast proliferation assay (Alamar Blue). Type of series: cell-based. Particulars: 10% FBS-induced CF proliferation, 48 h, read-out: Inhibition percentage of cell proliferation. The procedure: CFs were treated for 48 h with 10% fetal bovine serum (FBS), to induce CFs proliferation in presence/absence of each new CTz derivatives in a concentration range of 1–10 μM. In Table 4, the inhibition percentage of cell proliferation for each concentration of the synthesized compounds are shown. All derivatives inhibited CFs proliferation induce by serum.
Sprague Dawley rats were obtained from the Animal Breeding Facility of the School of Chemical and Pharmaceutical Sciences at the University of Chile. All studies followed the Guide for the Care and Use of Laboratory Animals published by the US National Institutes of Health (NIH Publication 8th, 2011), and experimental protocols were approved by the University of Chile Institutional Ethics Review Committee. CF were isolated from of 2 or 3–day–old Sprague-Dawley rats and cultured as described previously. Briefly, the neonatal rats were decapitated and their hearts were extracted under aseptic environment. Atria were removed and ventricles were cut into small pieces (~1–2 mm) for posterior colagenase II digestion. The digestion yield was separated by 10 min centrifugation at 89×g. The pellet was resuspended in 10 mL of Dulbecco’s Modified Eagle’s Medium/Nutrient F-12 (DMEM-F12) supplemented with 10% FBS and antibiotics (100 μg/mL streptomycin and 100 units/mL penicillin) and cultured in a humid atmosphere of 5% CO2 and 95% O2 at 37°C until confluence (5 days). The purity of the CFs population was assessed through the expression of several markers. CFs had positive staining against vimentin (Santa Cruz Biotechnology), while being negative against sarcomeric actin and desmin (Sigma-Aldrich). Experiments were performed on cells at passage 1. […]
To evaluate cytotoxicity, CFs were seeded in 12 microwell plates at a ratio of 2 × 10^4 cell/cm^2, cultured in DMEM–F12 medium + 10% FBS, which was subsequently replaced by DMEM–F12. After 24 h of serum starvation derivatives were applied at proper times and concentrations in accordance to experimental procedures. Cell viability assays were carried out using Alamar Blue®, a nontoxic, cell permeable non fluorescent compound that is blue in color. Viable cells reduce resazurin to resorufin, which produces very bright red fluorescence which is used as a quantitative cell viability measure. […] The fluorescence of Alamar Blue® was read using microplate reader at 570 excitation and emission to 595 nm. Cell survival was expressed as percentage over the untreated cells. […] Cell proliferation was quantified by Alamar Blue®, according to protocol mentioned before. Cell proliferation was expressed as percentage over the control FBS treated cells.
Background: The colour change of resazurin is a common sign of viable cells or microbes.

Series [2] can be described thus: Cytotoxicity assay (Alamar Blue) in cardiac fibroblasts. The series is classed as cell-based, rat. Particulars: Sprague-Dawley, rat, primary neonatal rat cardiac fibroblasts (CFs), CFs treated for 48 h. Here is the method: CFs were treated for 48 h with all the new CTz derivatives in a broad concentration range (100 μM^−1 mM), and their cytotoxicity was then evaluated. In Table 3 cytotoxic concentration 50 (CC50) values for each of the synthesized compounds are shown. […] When comparing the different ZBG the series 5 is the least cytotoxic for CFs, while series 8 was the most cytotoxic.
Sprague Dawley rats were obtained from the Animal Breeding Facility of the School of Chemical and Pharmaceutical Sciences at the University of Chile. All studies followed the Guide for the Care and Use of Laboratory Animals published by the US National Institutes of Health (NIH Publication 8th, 2011), and experimental protocols were approved by the University of Chile Institutional Ethics Review Committee. CF were isolated from of 2 or 3–day–old Sprague-Dawley rats and cultured as described previously. Briefly, the neonatal rats were decapitated and their hearts were extracted under aseptic environment. Atria were removed and ventricles were cut into small pieces (~1–2 mm) for posterior colagenase II digestion. The digestion yield was separated by 10 min centrifugation at 89×g. The pellet was resuspended in 10 mL of Dulbecco’s Modified Eagle’s Medium/Nutrient F-12 (DMEM-F12) supplemented with 10% FBS and antibiotics (100 μg/mL streptomycin and 100 units/mL penicillin) and cultured in a humid atmosphere of 5% CO2 and 95% O2 at 37°C until confluence (5 days). The purity of the CFs population was assessed through the expression of several markers. CFs had positive staining against vimentin (Santa Cruz Biotechnology), while being negative against sarcomeric actin and desmin (Sigma-Aldrich). Experiments were performed on cells at passage 1. Cells were cultured in 35-mm well plates and serum starved for 24 h prior to stimulation.
To evaluate cytotoxicity, CFs were seeded in 12 microwell plates at a ratio of 2 × 10^4 cell/cm^2, cultured in DMEM–F12 medium + 10% FBS, which was subsequently replaced by DMEM–F12. After 24 h of serum starvation derivatives were applied at proper times and concentrations in accordance to experimental procedures. Cell viability assays were carried out using Alamar Blue®, a nontoxic, cell permeable non fluorescent compound that is blue in color. Viable cells reduce resazurin to resorufin, which produces very bright red fluorescence which is used as a quantitative cell viability measure. 10 μL of 0.2 mg/mL Alamar Blue® was added into each well followed by incubation for 24 h. The fluorescence of Alamar Blue® was read using microplate reader at 570 excitation and emission to 595 nm. Cell survival was expressed as percentage over the untreated cells. To evaluate CFs proliferation assay, cells were seeded as mentioned before, and after serum starvation, they were stimulated by 10% fetal bovine serum (FBS), in presence/absence of CTz derivatives for […], at concentrations according to experiment. Cell proliferation was quantified by Alamar Blue®, according to protocol mentioned before. Cell proliferation was expressed as percentage over the control FBS treated cells.

For orientation: CC50 means the concentration at which the toxic effect on the cells reaches its halfway point. Lower therefore signals greater toxicity to the cells. Turning to `O=C(CCCCC1CCSS1)Nc1nc(-c2cc3ccccc3oc2=O)cs1` (stereo not shown) [Compound 5a, 5-[1,2]-Dithiolan-3-yl-N-[4-(2-oxo-2H-chromen-3-yl)-thiazol-2-yl]-pentanamide], in series [1], the inhibition at 1 µM worked out at 57.3 ± 6.7%, the inhibition at 5 µM came to 70.7 ± 7.1% and the inhibition at 10 µM came to 92.8 ± 6.4%. This molecule also registered a CC50 at 48 h in series [2] of 201 ± 20.3 µM.
The matching figures for `O=C(Nc1nc(-c2cc3ccccc3oc2=O)cs1)c1ccc(O)c(O)c1` [Compound 6a]: 3 ± 3.9%, 35 ± 1.9%, 60.6 ± 1.9% and 140 ± 11.7 µM.
The matching figures for `O=C(O)CCCCC(=O)Nc1nc(-c2cc3ccccc3oc2=O)cs1` [Compound 7a]: 0.5 ± 0.1%, 26.8 ± 5.9%, 45 ± 5.1% and 111 ± 4.4 µM.
As to `O=C(CCCCC(=O)Nc1nc(-c2cc3ccccc3oc2=O)cs1)NO` [Compound 8a, 5-[4-(2-Oxo-2H-chromen-3-yl)-thiazol-2-yl-carbamoyl]-N-hydroxypentanamide], in series [1], the inhibition at 1 µM amounted to 59.4 ± 6.1%, the inhibition at 5 µM was 79.9 ± 9.7% and the inhibition at 10 µM is 94.4 ± 3.8%. The molecule also returned a CC50 at 48 h in series [2] of 90.5 ± 5.1 µM.
